Experimental data taken from patent publication US20100249116A1 (priority 2007, published 2010).
Where two headings read alike, the source gives them in different places.

Assays:
[1] = tested on: acute intoxication of male Wistar rats with ethylene glycol (EG); details: rat, in vivo
[2] = in vivo; details: male, Wistar, rat, sc

Row | Structure (SMILES) | LD50 (toxicity parameter of EG) ([1]; male, Wistar, sc) [mg/kg] | K - Coefficient of efficiency (ratio of LD50 for treated animals to LD50 for non-treated animals) [1] | KG - Coefficient of guaranteed defense (ratio of LD10 for treated animals to LD90 for non-treated animals) [1] | LD10 (toxicity parameter of EG) ([1]; sc) [mg/kg] | LD16 (toxicity parameter of EG) ([1]; sc) [mg/kg] | LD84 (toxicity parameter of EG) ([1]; sc) [mg/kg] | LD90 (toxicity parameter of EG) ([1]; sc) [mg/kg] | LD50 [2] [mg/kg] | LD10 (toxicity parameter of EG) ([1]; male, Wistar, sc) [mg/kg] | LD16 (toxicity parameter of EG) ([1]; male, Wistar, sc) [mg/kg] | LD84 (toxicity parameter of EG) ([1]; male, Wistar, sc) [mg/kg] | LD90 (toxicity parameter of EG) ([1]; male, Wistar, sc) [mg/kg]
1 | Cc1cn[nH]c1 [4MP, 4-methylpyrazole] | 13000 | 3.71 | 2.04 | 10600 | 11000 | 15200 | 16100 |  |  |  |  | 
2 | OCCO [EG, Ethylene Glycol] |  |  |  |  |  |  |  | 3500 | 2220 | 2490 | 4530 | 5200
